Laboratory results taken from ChEMBL document CHEMBL2375224, “Discovery of aryl-biphenyl-2-ylmethylpiperazines as novel scaffolds for 5-HT(7) ligands and role of the aromatic substituents in binding to the target receptor” (Bioorg Med Chem, 2013).

These compounds were tested against 5-hydroxytryptamine receptor 7 (Homo sapiens, UniProt P34969) (assay: Displacement of [3H]-LSD from 5HT7 receptor (unknown origin) expressed in CHOK1 cells).
Assay type: cell-based, CHO-K1

Chain of 5-hydroxytryptamine receptor 7 (P34969 whole entry): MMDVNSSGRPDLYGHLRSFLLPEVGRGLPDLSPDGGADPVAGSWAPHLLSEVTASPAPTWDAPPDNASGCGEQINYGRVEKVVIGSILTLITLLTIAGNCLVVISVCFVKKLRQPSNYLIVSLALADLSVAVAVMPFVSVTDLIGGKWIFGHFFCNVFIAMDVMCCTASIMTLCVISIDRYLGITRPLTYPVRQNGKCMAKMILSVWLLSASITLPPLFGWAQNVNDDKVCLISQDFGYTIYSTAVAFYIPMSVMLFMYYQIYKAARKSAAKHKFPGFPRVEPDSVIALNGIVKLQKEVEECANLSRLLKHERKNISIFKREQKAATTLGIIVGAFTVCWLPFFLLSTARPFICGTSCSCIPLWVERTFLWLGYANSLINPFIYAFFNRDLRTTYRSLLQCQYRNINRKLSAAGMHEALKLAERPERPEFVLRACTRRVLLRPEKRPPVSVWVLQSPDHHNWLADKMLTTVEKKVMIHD

First: COc1ccc(-c2ccccc2CN2CCN(c3ccccc3OC)CC2)cc1
Second: COc1ccccc1N1CCN(Cc2ccccc2-c2ccc(Cl)cc2)CC1
The Ki of the first is 4.8-fold lower: 46 nM for the first, 220 nM for the second.

Going from `COc1ccc(N2CCN(Cc3ccccc3-c3ccccc3)CC2)cc1OC` to `COc1cccc(N2CCN(Cc3ccccc3-c3ccccc3)CC2)c1`, the Ki rises from 1850 nM to over 10000 nM.

Going from `Cc1ccccc1N1CCN(Cc2ccccc2-c2ccccc2)CC1` to `Fc1ccccc1N1CCN(Cc2ccccc2-c2ccccc2)CC1`, the Ki rises from 1750 nM to over 10000 nM.

Compared with `Cc1cccc(N2CCN(Cc3ccccc3-c3ccccc3)CC2)c1`, `Fc1cccc(N2CCN(Cc3ccccc3-c3ccccc3)CC2)c1` is higher in Ki: 1200 nM for the first, over 10000 nM for the second. The first binds more tightly here.

Going from `Cc1ccc(N2CCN(Cc3ccccc3-c3ccccc3)CC2)cc1` to `Fc1ccc(N2CCN(Cc3ccccc3-c3ccccc3)CC2)cc1`, the Ki rises from 2760 nM to over 10000 nM. The first binds more tightly here.

`Cc1cccc(N2CCN(Cc3ccccc3-c3ccccc3)CC2)c1C` and `Cc1ccc(N2CCN(Cc3ccccc3-c3ccccc3)CC2)c(C)c1` cannot be ordered by Ki: over 10000 nM for the first, over 10000 nM for the second.

`Cc1ccc(C)c(N2CCN(Cc3ccccc3-c3ccccc3)CC2)c1` and `Cc1cc(C)cc(N2CCN(Cc3ccccc3-c3ccccc3)CC2)c1` cannot be ordered by Ki: over 10000 nM for the first, over 10000 nM for the second.

Going from `FC(F)(F)c1cccc(N2CCN(Cc3ccccc3-c3ccccc3)CC2)c1` to `Clc1ccc(N2CCN(Cc3ccccc3-c3ccccc3)CC2)cc1`, the Ki rises from 1660 nM to over 10000 nM.

First: COc1ccccc1N1CCN(Cc2ccccc2-c2ccccc2F)CC1
Second: COc1ccccc1N1CCN(Cc2ccccc2-c2ccccc2Cl)CC1
The Ki of the first is 2.2-fold higher: 658 nM for the first, 297 nM for the second.

Going from `COc1ccccc1N1CCN(Cc2ccccc2-c2cccc(Cl)c2)CC1` to `COc1cccc(-c2ccccc2CN2CCN(c3ccccc3OC)CC2)c1`, the Ki falls from 219 nM to 77 nM (2.8-fold).

Going from `COc1ccccc1N1CCN(Cc2ccccc2-c2ccccc2C)CC1` to `COc1ccccc1-c1ccccc1CN1CCN(c2ccccc2OC)CC1`, the Ki falls from 311 nM to 43 nM (7.2-fold).

`Clc1ccccc1N1CCN(Cc2ccccc2-c2ccccc2)CC1` and `COc1ccc(N2CCN(Cc3ccccc3-c3ccccc3)CC2)cc1` cannot be ordered by Ki: over 10000 nM for the first, over 10000 nM for the second.
